{"source": "patent EP1196154B1", "about": "“INHIBITION OF RENAL UPTAKE OF RADIOMOLECULES WITH A COMBINATION OF LYSINE AND ARGININE” (MALLINCKRODT, INC., priority 1999, dated 2001)", "key": {"kidneys [1]": {"system": "kidneys", "test": "Renal uptake of [^111In-DTPA-D-Phe^1]octreotide in rats with amino acid administration", "type": "in vivo", "settings": "for inhibition at 400 mg/kg: Rattus norvegicus", "method": "Furthermore, it has been described by De Jong et al. in J. Nucl. Med 37(8): 1388-1392 (1996) that uptake in the rat kidneys of the [^111In-DTPA-D-Phe^1]octreotide can be inhibited by 50% by intravenous administration of the amino acid L-lysine alone (400 mg/kg). In a further article by Bernard et al. in J. Nucl.\nL-arginine alone gave a reduction of 20-30% at an equimolar dose. In human studies 15, 21 and 40% reduction of kidney uptake of [^111In-DTPA-D-Phe^1]octreotide was reached using a dose of 25, 50 and 75 g L-lysine, respectively. […] Hyperkalemia may result in acute and life-threatening cardiotoxicity."}, "kidneys [2]": {"system": "kidneys", "settings": "Bernard et al.; cited from earlier work"}, "kidneys [3]": {"system": "kidneys", "test": "Kidney uptake of ^111In-pentetreotide in patients with amino acid infusion (planar scintigraphy and dosimetry)", "type": "in vivo, humans", "settings": "for reduction of kidney uptake of [^111In-DTPA-D-Phe^1]octreotide: human studies", "method": "A 1000 mL infusion containing 25 g L-lysine and 25 g L-arginine (Lys/Arg; see MATERIALS, paragraph A. for exact formulation) was administered intravenously to patients during 4 hours, starting 30 minutes prior to administration of the radioligand. One radioligand was [^111In-DTPA-D-Phe^1]octreotide (^111In-pentetreotide, OctreoScan®, Mallinckrodt Medical, Petten, The Netherlands) in a diagnostic amount of 220 MBq (9 patients). Each patient was also investigated on a separate occasion with 220 MBq ^111In-pentetreotide, but without any infusion. The other radioligand was [^177Lu-DOTA,Tyr^3]octreotate in a therapeutic amount of 1850 MBq (5 patients). Each patient was also investigated on a separate occasion with 1850 MBq [^177Lu-DOTA,Tyr^3]-octreotate, but without any infusion. The control experiment (5 patients) consisted of infusion of 1000 mL neutral infusion fluid without the amino acids (NaCl 0.45% plus Glucose 2.5%)over 4 hours, starting 30 min. prior to the injection of 220 MBq ^111In-pentetreotide.\n24 Hours post infusion the uptake of the radioligand in the kidneys, spleen and liver was measured using planar scintigraphy and dosimetry, and for each patient the ratio between uptake in these organs during infusion with Lys/Arg and without Lys/Arg was calculated (Figures 1, 2 and 3).\nAt least 5 patients received one of the following amino acid preparations: • 1. AA (2030 mL cocktail of various amino acids; see MATERIALS, paragraph B, for the source and details) • 2. 25 g L-lysine in 500 mL (see MATERIALS, paragraph C, for exact formulation) • 3. 50 g lysine in 2000 mL (see MATERIALS, paragraph C, for exact formulation) • 4. 75 g lysine in 1500 mL (see MATERIALS, paragraph C, for exact formulation) • 5. 25 g L-lysine and 25 g L-arginine in 1000 mL (invention), (Lys/Arg; see MATERIALS, paragraph A. for exact formulation).\nThe preparations were given intravenously over 4 hours starting 30 minutes before treatment with the radioligand started. The radioligand was ^111Inpentetreotide, either in a diagnostic amount of 220 MBq, or in a therapeutic amount, 7 - 11 GBq. Each patient was his or her own control. The control consisted of treatment with the radioligand but without an amino acid preparation.\nAt 24 and 48 hours post infusion the ratio between tissue uptake in the left kidney in patients receiving an amino acid composition and the controls was determined by planar scintigraphy and dosimetry."}, "[4]": {"test": "Serum potassium level in patients during amino acid infusion", "type": "in vivo, humans", "method": "In an experiment of the invention 11 patients received an infusion over 4 hours of a solution containing 25 g L-lysine and 25 g L-arginine in 1000 mL (Lys/Arg; see MATERIALS, paragraph A. for exact formulation). The potassium level of these patients was measured in serum at t=0 hours and after 0.5, 1, 2, 4 and 5 hours.\nAs a control 6 patients received 75 g L-lysine in 1500 mL during 4 hours (see MATERIALS, paragraph C. for exact formulation)."}, "[5]": {"test": "Vomiting and symptoms in patients during amino acid infusion", "type": "in vivo, humans", "method": "26 patients received 1 to 5 therapeutic doses of 1-10 GBq ^90Y-DOTA,Tyr^3-octreotide, with concomitant infusion of a 2030 mL cocktail of various amino acids in 4 hours, starting 30 min. before the administration of the radiopharmaceutical (see MATERIALS, paragraph B. for exact details). In 11 of these 26 patients (42%), [being 20 of 84 treatments (24%)] one or more episodes of vomiting occurred, up to 30 episodes of severe vomiting per treatment.\nIn one of these 11 patients the vomiting was so severe during the 2 treatments with the above described regimen, that it was decided to use an infusion with 50 g of L-lysine instead of the infusion with the cocktail of various amino acids concomitant with their 3rd and 4th therapy with ^90Y-DOTA,Tyr^3-octreotide.\n8 patients received multiple therapeutic doses of 7-11 GBq ^111In-pentetreotide. All received once a concomitant infusion of a 2030 mL cocktail of various amino acids in 4 hours, starting 30 min. before the administration of the radiopharmaceutical (see MATERIALS, paragraph B. for exact details). In 4 of these 8 patients (50%) vomiting occurred.\nIn these same 8 patients only 3 episodes […] of vomiting occurred during 22 treatments with 7-11 GBq ^111In-pentetreotide while they received 25 or 50 grams of L-lysine in 500 to 2000 mL (see MATERIALS, paragraph C. for exact details) over 4 hours, starting 30 min. before administration of the radiopharmaceutical, as concomitant infusions.\nIn an experiment of the invention 11 patients received an infusion over 4 hours of a solution containing 25 g L-lysine and 25 g L-arginine in 1000 mL (Lys/Arg; see MATERIALS, paragraph A. for exact formulation). Thirty min. after the start of the infusion they received a diagnostic dose of 220 MBq ^111Inpentetreotide. Ten patients had no symptoms during the infusion, in particular no vomiting. […] During the Lys/Arg infusion they vomited twice.\nFive patients received the Lys/Arg infusion in the same manner as described above, but they received a therapeutic dose of 1850 MBq [^177Lu-DOTA,Tyr^3]octreotate, 30 min. after the start of the Lys/Arg infusion. None of these 5 patients had any symptoms at all, in particular no vomiting.\nUntil now the Lys/Arg infusion, 1000 mL in 4 hours concomitant with therapeutic doses of radioactive labelled peptides, has been administered to more than 30 patients, in total more than 80 occasions. Vomiting occurs in less than 5% of the occasions, and if it occurs it is most probably due to other causes."}, "[6]": {"test": "Osmolarity of infusion fluids", "type": "physicochemical", "settings": "infusion fluid as prepared"}}, "note": "Values joined by “and” are separate entries in the source; they are usually repeats but may differ in a detail not shown here. Equal entries are not always repeated."}
{"molecule": "NCCCC[C@@H](N)C(=O)O", "note": "[D-lysine]", "values": [{"measurement": "inhibition at 400 mg/kg", "setting": "kidneys [1]", "value": 50, "unit": "%"}, {"measurement": "reducing the rat renal uptake of [^111In-DTPA-D-Phe^1]octreotide and ^90Y-DOTA,Tyr^3-octreotide", "setting": "kidneys [2]", "value": "capable of reducing"}]}
{"molecule": "N=C(N)NCCC[C@H](N)C(=O)O", "note": "[L-arginine]", "values": [{"measurement": "reduction of renal uptake of [^111In-DTPA-D-Phe^1]octreotide in rats", "setting": "kidneys [1]; alone, at an equimolar dose (to lysine 400 mg/kg)", "value": "20-30%"}]}
{"molecule": "NCCCC[C@H](N)C(=O)O", "note": "[L-lysine]", "values": [{"measurement": "inhibition at 400 mg/kg", "setting": "kidneys [1]", "value": 50, "unit": "%"}, {"measurement": "[^111In-DTPA-D-Phe^1]octreotide uptake reduction in the left kidney, rank among amino acid preparations (Figure 4)", "setting": "kidneys [3]; 24 and 48 hours post infusion, 75 g L-lysine, 25 g L-lysine plus 25 g L-arginine", "value": "highest uptake reduction"}, {"measurement": "reduction of kidney uptake of [^111In-DTPA-D-Phe^1]octreotide", "setting": "kidneys [3]; dose of 25 g", "value": 15, "unit": "%"}, {"measurement": "reduction of kidney uptake of [^111In-DTPA-D-Phe^1]octreotide", "setting": "kidneys [3]; dose of 50 g", "value": 21, "unit": "%"}, {"measurement": "reduction of kidney uptake of [^111In-DTPA-D-Phe^1]octreotide", "setting": "kidneys [3]; dose of 75 g", "value": 40, "unit": "%"}, {"measurement": "hyperkalemia", "setting": "[4]; 75 g L-lysine (Table 2), 25 g L-lysine plus 25 g L-arginine (Table 1)", "value": "severe hyperkalemia"}, {"measurement": "patients with a maximum potassium level above the critical value of 6.0 mmol/L", "setting": "[4]; 75 g in 1500 mL", "value": "3 out of 6"}, {"measurement": "maximum potassium (K) level in serum", "setting": "[4]; 75 g in 1500 mL over 4 hours, single patients 12-17", "value": "5.2 mmol/L and 6.8 mmol/L and 6.7 mmol/L and 5.4 mmol/L and 5.0 mmol/L and 6.3 mmol/L"}, {"measurement": "patients with severe hyperkalemia", "setting": "[4]; humans, total dose of 75 g", "value": 50, "unit": "%"}, {"measurement": "episodes of vomiting during treatments", "setting": "[5]; 25 or 50 grams in 500 to 2000 mL over 4 hours, 7-11 GBq ^111In-pentetreotide, 3 episodes during 22 treatments, 8 patients", "value": 9, "unit": "%"}, {"measurement": "tolerability / toxicity", "setting": "[5]; human studies, doses of 25 and 50 g", "value": "well tolerated without any toxicity noted"}, {"measurement": "vomiting (conclusion from EXAMPLES 4, 5 and 6)", "setting": "[5]; infusion over 4 hours", "value": "seldomly observed"}, {"measurement": "episodes of vomiting", "setting": "[5]; one patient, 50 g, 3rd therapy with ^90Y-DOTA,Tyr^3-octreotide", "value": "one"}, {"measurement": "vomiting", "setting": "[5]; one patient, 50 g, 4th therapy with ^90Y-DOTA,Tyr^3-octreotide", "value": "no vomiting at all"}, {"measurement": "osmolarity", "setting": "[6]", "value": "ca. 400 mosmol/L"}]}
{"molecule": "Lys/Arg", "values": [{"measurement": "patients having a maximum potassium value of 6.0 mmol/L", "setting": "[4]; human, in vivo", "value": "one out of eleven"}, {"measurement": "occasions on which vomiting occurs", "setting": "[5]; human, in vivo", "value": "less than 5%"}, {"measurement": "patients who suffered from vomiting", "setting": "[5]; human, in vivo", "value": "none"}, {"measurement": "tolerability on 4 later occasions in the same patient", "setting": "[5]; human, in vivo", "value": "without any problems"}, {"measurement": "treatments in which vomiting occurred", "setting": "[5]; human, in vivo", "value": 8, "unit": "%"}]}
